{"source": "BindingDB's records for doi:10.1021/jm00068a006", "about": "(Merck Research Laboratories, 1993)", "target": "T1, Dimer of Gag-Pol polyprotein [489-587] (Human immunodeficiency virus 1, UniProt P12497)", "T1 construct": "489-587", "test": "Protease Inhibition Assay", "conditions": "pH 5.5; 30 °C", "note": "pIC50: −log10 of the molar value."}
{"smiles": "CC(C)(C)NC(=O)[C@@H]1C[C@@H]2CCCC[C@@H]2CN1C[C@@H](O)[C@H](Cc1ccccc1)NC(=O)[C@@H](NC(=O)c1ccc2ccccc2n1)[C@H]1CCOC1", "note": "[(3S,4aS,8aS)-N-tert-butyl-2-[(2R,3S)-2-hydroxy-3-[(2S)-2-[(3R)-oxolan-3-yl]-2-(quinolin-2-ylformamido)acetamido]-4-phenylbutyl]-decahydroisoquinoline-3-carboxamide]", "values": [{"measurement": "pIC50", "value": 10.27}]}
